Experiments:
poliovirus polymerase [1] = biological target: T1, poliovirus polymerase (Poliovirus type 1, UniProt P03300)
[2] = biological target: lattices of poliovirus polymerase (Poliovirus type 1, UniProt P03300)
poliovirus polymerase [3] = biological target: T1, poliovirus polymerase; remark: listed apart in the source
poliovirus polymerase [4] = biological target: T1, poliovirus polymerase; remark: listed apart in the source

T1 sequence (P03300 1749-2209 limits assumed): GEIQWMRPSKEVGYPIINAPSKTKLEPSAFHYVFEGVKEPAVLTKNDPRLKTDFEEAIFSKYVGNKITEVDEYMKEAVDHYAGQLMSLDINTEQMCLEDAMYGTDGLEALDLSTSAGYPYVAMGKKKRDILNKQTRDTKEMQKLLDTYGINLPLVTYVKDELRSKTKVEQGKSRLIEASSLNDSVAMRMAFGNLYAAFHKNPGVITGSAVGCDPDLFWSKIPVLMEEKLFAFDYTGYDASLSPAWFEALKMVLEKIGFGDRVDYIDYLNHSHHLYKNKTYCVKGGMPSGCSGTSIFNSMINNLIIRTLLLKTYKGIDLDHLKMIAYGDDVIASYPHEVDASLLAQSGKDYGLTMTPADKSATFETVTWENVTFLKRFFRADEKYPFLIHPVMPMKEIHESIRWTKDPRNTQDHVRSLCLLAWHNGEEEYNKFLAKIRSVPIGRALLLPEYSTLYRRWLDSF
Chain of lattices of poliovirus polymerase (P03300 1749-2209 limits assumed): as above

KPHKCTFEGCRKSYSRSTNLRRHLNSH (SEQ ID NO:5) [Peptide 1]
amount of UTP incorporated (poliovirus polymerase [1]): diminished | sheets and tubes of polymerase by electron microscopy [2]: replaced by large aggregates and more narrow ribbons | UTP incorporation (poliovirus polymerase [3]): dramatic stimulation | cooperativity of the elongation reaction (poliovirus polymerase [4]): loss of cooperativity | inhibition of poliovirus polymerase (poliovirus polymerase [4]): inhibits poliovirus polymerase effectively | inhibition of the polymerase reaction (poliovirus polymerase [4]): marked inhibition
